Measured values: PubChem BioAssay AID1919003 (Molecular Pharmacology Branch, DTP, NCI, 2023)
“And” between values parts separate entries of the source, which are not always exact repeats. Identical values can stand only once.

System: 786-0 complex spheroids with HUVEC/MSC, growth % test/control
Test: Anticancer human tumor 786-0 cell line growth inhibition [AhR];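 note: compound exposure lasted seven days before the read-out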
Details: for viability, T/C: stronger effect = lower value
Excerpt: Multicellular complex tumor spheroid response to aryl hydrocarbon receptor antagonists in combination with a variety of drugs and investigational agents in selected tumor cell lines
The current study was undertaken to assess response to aryl hydrocarbon receptor antagonists in combination with standard-of-care drugs and investigational agents in solid tumor complex spheroid models. Complex spheroids include a stromal component modeled by human endothelial cells (HUVEC) and fibroblasts modeled by human mesenchymal stem cells (MSCs). The concentration ranges selected for each drug and investigational agent were based upon clinically achievable concentrations if the clinical Cmax of the agent was known.
Compounds. The drugs and investigational agents: BAY 2416964 (NSC825713), GNF351 (NSC835774), CH-223191 (NSC835775), CPI-455 (NSC825282), aza-TdCyd (NSC777586), decitabine (NSC127716), belinostat (NSC758774), entinostat (NSC756642), pevonedistat (NSC761192), tazemetostat (NSC777109), talazoparib (NSC765396), olaparib (NSC753686), selinexor (NSC780203), nedisertib (M3814, NSC802822), bortezomib (NSC756655), venetoclax (NSC766270), doxorubicin (NSC123127), elimusertib (BAY189344, NSC800525), ceralasertib (AZD6738, NSC777638), TAK-243 (NSC785004), alisertib (NSC759677), etoposide (NSC141540), topotecan (NSC609699), eribulin (NSC707389), gemcitabine (NSC613327), carboplatin (NSC241240), cisplatin (NSC119875), and SN-38 (NSC673596) were obtained from the National Cancer Institute (NCI) Developmental Therapeutics Program Chemical Repository (32). The FDA-approved anticancer drug set is available from the Developmental Therapeutics Program at https://dtp.cancer.gov/organization/dscb/obtaining/available plates.htm. […] The stock solutions were prepared in dimethyl sulfoxide (DMSO, Sigma-Aldrich, St. Louis, MO, cat. D2650), except for the platinum compounds which were prepared in saline (Quality Biological, Gaithersburg, MD, cat. 114-055-101), at 800-fold the tested concentration and stored at -70 degrees C prior to their use. All drugs and investigational agents were tested over a range starting from a high concentration at or near the clinical Cmax and decreasing in half-log increments. If the clinical Cmax for an agent had not been determined, the highest concentration tested was 10 microM (Table 1).
Cell Culture. All cells were maintained in an incubator at 37 degrees C and 5% CO2 with 95% humidity. The PDC lines were cultured according to standard operating procedures established by the NCI PDMR (https://pdmr.cancer.gov). Briefly, all PDCs were thawed and cultured in Matrigel-coated flasks prepared with a working solution of 1X Ham's F-12 nutrient mix, without supplementation (Invitrogen, Waltham, MA, cat. 11765054), 100 U/mL penicillin-streptomycin (Invitrogen, cat. 15140122), and 2.5% Matrigel (Corning Inc., Corning, NY, cat. 354248) for the first three passages. All PDCs were cultured in complete DMEM/F-12 media containing advanced DMEM/F-12 (Invitrogen, cat. 12634028), 4.9% defined fetal bovine serum, heat inactivated (HyClone Laboratories Inc., Logan, UT, cat. SH30070.03HI), 389 ng/mL hydrocortisone (Sigma-Aldrich, cat. H4001), 9.7 ng/mL human EGF recombinant protein (Invitrogen, cat. PHG0313), 23.4 microg/mL adenine (Sigma-Aldrich, cat. A2786), 97.3 U/mL penicillin-streptomycin (Invitrogen, cat. 15140122), 1.9 mM L-glutamine (Invitrogen, cat. 25030081), and 9.7 microM Y-27632 dihydrochloride (Tocris Bioscience, Bristol, United Kingdom, cat. 1254). The PDCs were cultured in complete DMEM/F12 media without 10 microM Y-27632 dihydrochloride for at least two passages prior to the screen. The established cell lines NCI-H1341 and […] were cultured in DMEM/F-12, HEPES (Invitrogen, cat. 11330032), 5% defined fetal bovine serum (HyClone Laboratories Inc., cat. SH30070.03), ITS premix universal culture supplement [insulin (5 microg/mL), transferrin (5 microg/mL), and selenious acid (5 ng/mL)] […]

Work on CCc1c2c(nc3ccc(O)cc13)-c1cc3c(c(=O)n1C2)COC(=O)[C@]3(O)CC + Cc1cncc(-c2nc(NCCc3c[nH]c4ccccc34)c3ncn(C(C)C)c3n2)c1 yielded an IC50 (curve of first compound, second compound 0.1 µM) of 6.02 nM, an IC50 (curve of first compound, second compound 0.316 µM) of 6.06 nM and an IC50 (curve of first compound, second compound 1 µM) of 5.1 nM. For the same molecule, the IC50 (curve of first compound, second compound 3.16 µM) was 1.52 nM, the IC50 (curve of first compound, second compound 10 µM) was less than 0.949 nM and the viability, T/C (second compound 0.1 µM, first compound 0.000949 µM) was 106%. The viability, T/C (second compound 0.1 µM, first compound 0.003 µM) was 93.5%, the viability, T/C (second compound 0.1 µM, first compound 0.00949 µM) was 21.5% and the viability, T/C (second compound 0.1 µM, first compound 0.03 µM) was 5.21%. It also gave a viability, T/C (second compound 0.1 µM, first compound 0.0949 µM) of 2.42%, a viability, T/C (second compound 0.1 µM, first compound 0.3 µM) of 2.24% and a viability, T/C (second compound 0.316 µM, first compound 0.000949 µM) of 112%. The viability, T/C (second compound 0.316 µM, first compound 0.003 µM) was 95.4%, the viability, T/C (second compound 0.316 µM, first compound 0.00949 µM) was 21% and the viability, T/C (second compound 0.316 µM, first compound 0.03 µM) was 6.67%. It also gave a viability, T/C (second compound 0.316 µM, first compound 0.0949 µM) of 3.31%, a viability, T/C (second compound 0.316 µM, first compound 0.3 µM) of 2.09% and a viability, T/C (second compound 1 µM, first compound 0.000949 µM) of 99.5%. The viability, T/C (second compound 1 µM, first compound 0.003 µM) was 79.5%, the viability, T/C (second compound 1 µM, first compound 0.00949 µM) was 15.4% and the viability, T/C (second compound 1 µM, first compound 0.03 µM) was 5.63%. The viability, T/C (second compound 1 µM, first compound 0.0949 µM) was 2.53%, the viability, T/C (second compound 1 µM, first compound 0.3 µM) was 3.71% and the viability, T/C (second compound 3.16 µM, first compound 0.000949 µM) was 65.7%. The viability, T/C (second compound 3.16 µM, first compound 0.003 µM) was 27.2%, the viability, T/C (second compound 3.16 µM, first compound 0.00949 µM) was 4.92% and the viability, T/C (second compound 3.16 µM, first compound 0.03 µM) was 2.43%. The viability, T/C (second compound 3.16 µM, first compound 0.0949 µM) was 1.6%, the viability, T/C (second compound 3.16 µM, first compound 0.3 µM) was 1.37% and the viability, T/C (second compound 10 µM, first compound 0.000949 µM) was 1.65%. It also gave a viability, T/C (second compound 10 µM, first compound 0.003 µM) of 0.61%, a viability, T/C (second compound 10 µM, first compound 0.00949 µM) of 0.43% and a viability, T/C (second compound 10 µM, first compound 0.03 µM) of 0.38%. It also gave a viability, T/C (second compound 10 µM, first compound 0.0949 µM) of 0.28% and a viability, T/C (second compound 10 µM, first compound 0.3 µM) of 0.36%.

With CC(C)CC(NC(=O)C(Cc1ccccc1)NC(=O)c1cnccn1)B(O)O (configuration not stated) the viability, T/C (compound 0.000949 µM) was 100% and 102% and 98.1%, the viability, T/C (compound 0.003 µM) was 105% and 104% and 116% and the viability, T/C (compound 0.00949 µM) was 63.4% and 99.9% and 35.7%. For the same molecule, the viability, T/C (compound 0.03 µM) was 3.86% and 13.5% and 0.66%, the viability, T/C (compound 0.0949 µM) was 0.45% and 1.34% and 0.4% and the viability, T/C (compound 0.3 µM) was 1.25% and 0.84% and 0.27%. For the same molecule, the IC50 (curve of compound) was 12.3 nM and 18.4 nM and 7.53 nM.
